Tests used:
[1] = Test of hydrogen sulfide detection sensitivity (% decomplexation with NaHS, radio-TLC); assay type: physicochemical; details: for % decomplexation: 37° C. for 15 minutes
Experimental: To measure hydrogen sulfide detection sensitivity of the ^64Cu-labeled complex compound according to the present disclosure, the following experiment was performed.
About 45 μCi-55 μCi of ^64Cu-labeled complex compound (250 μL of triple distilled water) was mixed with various concentrations of NaHS solution (250 µL of triple distilled water), and stirred at 37° C. for 15 minutes (a total volume used in the reaction was equally 500 μL). After completion of the reaction, the resulting products were strongly stirred to mix appropriately.
Formation of copper sulfide (^64CuS) was confirmed by quantification of % decomplexation by using a radio-TLC scanner, and results are shown in the following Tables 2 and 3.

[2] = Hydrogen sulfide selectivity test: decomplexation by Cys; assay type: physicochemical; details: 100 μM or L-Cys (1 mM), 37° C. for 15 minutes
Experimental: (§1) In addition to hydrogen sulfide, many different anions, radicals, etc. exist in the body. Therefore, to examine selective reactivity of the ^64Cu-labeled complex compound according to the present disclosure for sulfide ions, the following experiment was performed.
(§2) About 45 μCi-55 μCi of the ^64Cu-labeled complex compound (250 μL of triple distilled water) was mixed with 100 μM of various anion solutions (250 μL of triple distilled water) including biothiol, and stirred at 37° C. for 15 minutes.
(§3) Formation of copper sulfide (^64CuS) was quantified by using a radio-TLC scanner.
(§4) Various biothiol or salt solutions were prepared by dissolving the compounds in triple distilled water.
(§5) In Table, concentrations of all biothiols and other competitive materials are 100 μM. Further, specific concentrations of biothiols, anions, and oxidants used in Table are as follows: [L-Cys (1 mM); L-Hcys (10 mM); GSH (10 mM); DL-dithiothretitol (DTT, 100 μM); L-ascorbic acid (L-AsA, 10 mM); 2-mercaptoethanol (2-ME, 10 mM); NaCl (10 mm); KI (1 mM); Na2S2O3 (1 mM); Na2S2O5 (1 mM); NaOAc (1 mM); H2O2 ([…]); NaClO4 (100 μM); NaHCO3 (100 μM); NaNO2 ([…]); NaN3 (100 μM); ATB 337 (100 μM); diallyl trisulphide (100 μM)].

[3] = Hydrogen sulfide selectivity test: decomplexation by H2O2; assay type: physicochemical; details: H2O2 (100 µM); 37° C. for 15 minutes
Experimental: as §1, §2, §3, §4, §5

[4] = Hydrogen sulfide selectivity test: decomplexation by NaClO4; assay type: physicochemical; details: NaClO4 (100 μM); 37° C. for 15 minutes
Experimental: as §1, §2, §3, §4, §5

[5] = Hydrogen sulfide selectivity test: decomplexation by NaHCO3; assay type: physicochemical; details: NaHCO3 (100 μM); 37° C. for 15 minutes
Experimental: as §1, §2, §3, §4, §5

[6] = Hydrogen sulfide selectivity test: decomplexation by NaN3; assay type: physicochemical; details: NaN3 (100 μM); 37° C. for 15 minutes
Experimental: as §1, §2, §3, §4, §5

[7] = Test of hydrogen sulfide-specific imaging (matrigel/NaHS sites on backs of rats, optical imaging); assay type: in vivo
Experimental: In order to examine whether the ^64Cu-labeled complex compounds according to the present disclosure are able to selectively detect in vivo hydrogen sulfide, different materials were injected into the backs of rats, and then each ^64Cu-labeled complex compound according to the present disclosure was injected via the tail, and then selective imaging was examined by optical imaging.
Referring to FIG. 4, at the beginning of the first experiment, matrigel alone, matrigel+1 mg NaCl, matrigel+0.5 mg NaHS, and matrigel+0.05 mg NaHS were injected into four sites on the backs of rats, respectively. 1.8 mCi of the ^64Cu-labeled complex compound according to Example 1 was injected via the tails of rats, immediately followed by optical imaging.

Arthritis model = experiment: Imaging in arthritis model; assay type: in vivo, DBA/1J mice
Experimental: An arthritis inducer, bovine type II collagen was intradermally injected into the tails of DBA/1J mice twice, and 5 weeks later (about 13-week-old), the mice were used in imaging tests. Arthritis degree of the paw was quantified by scoring.
Nuclear medicine imaging was measured by using an Inveon PET/CT system of Siemens Healthcare, and optical imaging was measured by using IVIS spectrum CT equipment. Cherenkov radiation emitted from ^64Cu was measured by using a highly sensitive CCD (charge-coupled device) camera.
Imaging was measured for 1 minute to 5 minutes, and a radiation dose was about 50 μCi to 2000 μCi, and photographs were variously taken as needed, such as immediately after first injection, at 1 hour, 4 hours, and 24 hours later.

EMT6 tumor = experiment: Imaging study in EMT6 tumor model (PET); assay type: in vivo, BALB/c female mouse
Description: To prepare an EMT6 tumor model, the number of cells was counted using a haemacytometer, and 2×10^5 cells were subcutaneously injected into the right flank and left shoulder region of BALB/c female mouse. About 2˜3 weeks later, when formation of about 1 cm of tumor was observed, the mice were used in subsequent experiments.
(§6) PET images were obtained after injecting the ^64Cu-labeled complex compound of Example 1 into the prepared rat model having EMT6 tumor and rat model having CT26 tumor.

CT26 tumor = experiment: Imaging study in CT26 tumor model (PET); assay type: in vivo, BALB/c mouse
Description: To prepare a CT26 tumor model, the number of cells was counted using a haemacytometer, and 5×10^6 cells were subcutaneously injected into the right flank of BALB/c mouse. About 10 days later, when formation of about 1 cm of tumor was observed, the mice were used in subsequent experiments.
as §6

[8] = Imaging study of hydrogen sulfide in normal rat (PET); assay type: in vivo; details: PET image before excision of the tongue
Description: PET images were obtained after injecting the ^64Cu-labeled complex compound of Example 1 into a normal rat, and PET images were obtained again after excision of the tongue thereof. […] However, after excision (B), the uptake was decreased in the same site. […] (C) is a photograph taken before imaging the tongue after excision.

Sepsis model = experiment: Imaging study in sepsis model (PET); assay type: in vivo, ICR mice
Description: After the lower abdominal region of ICR mice was opened, a small puncture in the appendix was made by using a syringe needle to prepare an acute sepsis model.
PET images were obtained after injecting the ^64Cu-labeled complex compound of Example 20 into the prepared rat model having sepsis.

SMILES: C1C[N]2CC[N]3CC[N]4CC[N]1[64Cu]243 [Example 1, ^64Cu-labeled cyclen]
- % decomplexation ([1]; NaHS 0 μM): 0%
- % decomplexation ([1]; NaHS 1 μM): 3%
- % decomplexation ([1]; NaHS 10 μM): 11%
- % decomplexation ([1]; NaHS 15 μM): 63%
- % decomplexation ([1]; NaHS 20 μM): 95%
- % decomplexation ([1]; NaHS 50 μM): 100%
- % decomplexation ([1]; NaHS 100 μM): 100%
- sensitivity for hydrogen sulfide (lowest detectable concentration), in words ([1]; comparison among tested complexes): most excellent sensitivity for hydrogen sulfide
- Decomplexation [%] [2]: 0.5 ± 0.1%
- Decomplexation [%] [3]: 0.5 ± 0.4%
- Decomplexation [%] [4]: 0.6 ± 0.2%
- Decomplexation [%] [5]: 0.6 ± 0.3%
- Decomplexation [%] [6]: 0.3 ± 0.2%
- optical imaging signals at four injected sites (matrigel alone, +NaCl, +0.5 mg NaHS, +0.05 mg NaHS) ([7]; 1.8 mCi via the tails of rats, imaging immediately): signals were detected only in the lower two sites injected with NaHS
- optical imaging signals at four injected sites (matrigel alone, +NaCl, +0.5 mg NaHS, +0.05 mg NaHS) ([7]; after 4 hours): signals were still detected only in the lower two sites
- uptake in the joint region (Arthritis model): selective uptake in the joint region
- uptake in the tumor region versus background (EMT6 tumor): higher uptake was observed in the tumor region
- uptake in the tumor region versus background (CT26 tumor): higher uptake was observed in the tumor region
- uptake in the tongue [8]: high uptake was observed in the tongue

SMILES: C1C[N]2CC[N]3CC[N]1[64Cu]23 [Example 20, ^64Cu-labeled TACN]
- % decomplexation ([1]; NaHS 0 μM): 0%
- % decomplexation ([1]; NaHS 1 μM): 0%
- % decomplexation ([1]; NaHS 10 μM): 9%
- % decomplexation ([1]; NaHS 15 μM): 11%
- % decomplexation ([1]; NaHS 20 μM): 13.5%
- % decomplexation ([1]; NaHS 50 μM): 24.6%
- % decomplexation ([1]; NaHS 100 μM): 54.4%
- Decomplexation [%] [2]: 0.8 ± 0.3%
- Decomplexation [%] [3]: 0.8 ± 0.3%
- Decomplexation [%] [4]: 0.4 ± 0.1%
- Decomplexation [%] [5]: 0.6 ± 0.4%
- Decomplexation [%] [6]: 0.4 ± 0.0%
- uptake in the lung (Sepsis model): increased uptake was observed in the lung
- uptake throughout the body (Sepsis model): uptake was increased throughout the body
